# According to publication PMC8799717, “Pharmacological targeting PIKfyve and tubulin as an effective treatment strategy for double-hit lymphoma” (Cell Death Discovery, 2022):
# Experiments:
# Assay in all cases: biochemical
# Set-up in all cases: KINOMEscan active-site-directed competition binding panel, 468 kinases, percent of DMSO control at 1 uM
# Details in all cases: KINOMEscan binding, percent of DMSO control; read-out: Ctrl%
# PRKCD = PRKCD (Homo sapiens, UniProt Q05655)
# SGK2 = SGK2 (Homo sapiens, UniProt Q9HBY8)
# MET(M1250T) = MET(M1250T) (Homo sapiens, UniProt P08581, M1250T)
# FLT3(R834Q) = FLT3(R834Q) (Homo sapiens, UniProt P36888, R834Q)
# ABL2 = ABL2 (Homo sapiens, UniProt P42684)
# CDC2L5 = target: T1, CDC2L5 (Homo sapiens, UniProt Q14004)
# T1 construct: gene CDK13
# ERN1 = ERN1 (Homo sapiens, UniProt O75460)
# LRRK2 = LRRK2 (Homo sapiens, UniProt Q5S007)
# SGK = target: T2, SGK (Homo sapiens, UniProt O00141)
# T2 construct: gene SGK1
# HIPK4 = HIPK4 (Homo sapiens, UniProt Q8NE63)
# PIK3CA(E545A) = PIK3CA(E545A) (Homo sapiens, UniProt P42336, E545A)
# SLK = SLK (Homo sapiens, UniProt Q9H2G2)
# FLT3-autoinhibited = FLT3-autoinhibited (Homo sapiens, UniProt P36888)
# WNK2 = WNK2 (Homo sapiens, UniProt Q9Y3S1)
# FRK = FRK (Homo sapiens, UniProt P42685)
# PIK3CB = PIK3CB (Homo sapiens, UniProt P42338)
# MYLK = MYLK (Homo sapiens, UniProt Q15746)
# AURKB = AURKB (Homo sapiens, UniProt Q96GD4)
# CDK5 = CDK5 (Homo sapiens, UniProt Q00535)
# FLT3(ITD,D835V) = FLT3(ITD,D835V) (Homo sapiens, UniProt P36888, D835V/ITD)
# PHKG1 = PHKG1 (Homo sapiens, UniProt Q16816)
# [1] = target: T3, ABL1(T315I)-phosphorylated (Homo sapiens, UniProt P00519, T315I)
# T3 construct: phosphorylated
# VEGFR2 = target: T4, VEGFR2 (Homo sapiens, UniProt P35968)
# T4 construct: gene KDR
# PIK3CA(C420R) = PIK3CA(C420R) (Homo sapiens, UniProt P42336, C420R)
# Sequence of PIK3CA(C420R) (P42336 whole entry C420R): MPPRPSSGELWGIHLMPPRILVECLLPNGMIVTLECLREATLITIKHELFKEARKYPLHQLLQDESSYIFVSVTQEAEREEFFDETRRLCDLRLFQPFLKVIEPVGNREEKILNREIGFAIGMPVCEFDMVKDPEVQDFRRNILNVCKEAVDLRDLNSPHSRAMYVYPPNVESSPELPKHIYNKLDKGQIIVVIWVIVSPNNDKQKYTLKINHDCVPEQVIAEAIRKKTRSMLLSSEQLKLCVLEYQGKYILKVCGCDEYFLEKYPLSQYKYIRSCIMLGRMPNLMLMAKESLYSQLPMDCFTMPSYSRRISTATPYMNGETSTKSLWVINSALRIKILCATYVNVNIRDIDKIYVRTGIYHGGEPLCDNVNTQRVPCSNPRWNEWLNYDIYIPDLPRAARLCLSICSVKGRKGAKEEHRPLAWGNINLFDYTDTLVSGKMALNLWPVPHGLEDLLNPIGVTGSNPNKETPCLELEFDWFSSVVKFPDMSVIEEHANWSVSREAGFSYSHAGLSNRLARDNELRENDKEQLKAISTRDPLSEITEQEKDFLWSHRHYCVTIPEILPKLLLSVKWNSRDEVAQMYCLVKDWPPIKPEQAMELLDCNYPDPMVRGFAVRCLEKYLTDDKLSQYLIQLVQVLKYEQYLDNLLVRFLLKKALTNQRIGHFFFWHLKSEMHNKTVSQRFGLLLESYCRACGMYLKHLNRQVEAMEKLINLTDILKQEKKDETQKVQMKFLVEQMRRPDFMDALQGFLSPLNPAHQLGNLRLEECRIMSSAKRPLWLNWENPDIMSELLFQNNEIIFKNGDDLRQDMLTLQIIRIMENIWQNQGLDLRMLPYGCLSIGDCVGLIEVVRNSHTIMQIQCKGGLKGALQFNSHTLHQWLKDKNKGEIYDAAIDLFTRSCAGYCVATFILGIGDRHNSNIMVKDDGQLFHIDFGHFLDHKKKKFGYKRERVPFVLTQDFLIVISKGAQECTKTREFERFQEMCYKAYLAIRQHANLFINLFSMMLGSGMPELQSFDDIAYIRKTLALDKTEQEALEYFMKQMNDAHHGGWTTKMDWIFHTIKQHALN
# Sequence of PIK3CB (P42338 whole entry): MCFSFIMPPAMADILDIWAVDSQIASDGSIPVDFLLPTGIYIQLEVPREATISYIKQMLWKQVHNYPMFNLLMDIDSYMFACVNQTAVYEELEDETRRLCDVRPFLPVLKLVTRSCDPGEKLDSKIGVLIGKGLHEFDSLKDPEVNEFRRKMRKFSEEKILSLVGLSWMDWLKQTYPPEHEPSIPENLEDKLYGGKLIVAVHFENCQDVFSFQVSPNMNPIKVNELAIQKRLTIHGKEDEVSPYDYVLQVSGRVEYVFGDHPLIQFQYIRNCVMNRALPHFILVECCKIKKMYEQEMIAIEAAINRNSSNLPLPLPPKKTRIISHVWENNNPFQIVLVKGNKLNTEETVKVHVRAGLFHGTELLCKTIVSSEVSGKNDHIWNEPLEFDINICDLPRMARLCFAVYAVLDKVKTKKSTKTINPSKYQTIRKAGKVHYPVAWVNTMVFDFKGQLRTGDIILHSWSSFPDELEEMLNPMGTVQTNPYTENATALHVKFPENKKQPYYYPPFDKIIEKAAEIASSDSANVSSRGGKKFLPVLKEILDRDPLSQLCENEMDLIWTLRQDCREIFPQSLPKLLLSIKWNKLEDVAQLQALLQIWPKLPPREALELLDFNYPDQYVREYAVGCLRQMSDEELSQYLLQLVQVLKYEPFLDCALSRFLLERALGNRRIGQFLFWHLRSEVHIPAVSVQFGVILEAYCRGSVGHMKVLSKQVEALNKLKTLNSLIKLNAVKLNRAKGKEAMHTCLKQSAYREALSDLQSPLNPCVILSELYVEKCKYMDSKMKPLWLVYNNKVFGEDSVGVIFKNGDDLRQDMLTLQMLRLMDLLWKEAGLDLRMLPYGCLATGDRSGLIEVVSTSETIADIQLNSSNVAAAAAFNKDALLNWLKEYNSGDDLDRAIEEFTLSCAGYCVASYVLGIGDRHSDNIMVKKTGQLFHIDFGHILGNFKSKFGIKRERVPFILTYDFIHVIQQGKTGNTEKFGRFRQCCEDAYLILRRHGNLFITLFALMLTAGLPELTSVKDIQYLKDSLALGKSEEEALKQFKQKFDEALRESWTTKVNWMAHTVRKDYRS
# Sequence of CDK5 (Q00535 whole entry): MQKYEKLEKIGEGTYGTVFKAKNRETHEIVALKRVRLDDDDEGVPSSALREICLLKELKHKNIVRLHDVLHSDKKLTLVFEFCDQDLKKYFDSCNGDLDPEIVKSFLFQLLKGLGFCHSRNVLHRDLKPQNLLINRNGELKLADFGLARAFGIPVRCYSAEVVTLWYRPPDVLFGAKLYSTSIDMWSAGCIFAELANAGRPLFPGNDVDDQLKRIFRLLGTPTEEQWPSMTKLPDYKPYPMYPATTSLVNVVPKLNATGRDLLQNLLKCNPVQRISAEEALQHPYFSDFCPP
# Sequence of LRRK2 (Q5S007 whole entry): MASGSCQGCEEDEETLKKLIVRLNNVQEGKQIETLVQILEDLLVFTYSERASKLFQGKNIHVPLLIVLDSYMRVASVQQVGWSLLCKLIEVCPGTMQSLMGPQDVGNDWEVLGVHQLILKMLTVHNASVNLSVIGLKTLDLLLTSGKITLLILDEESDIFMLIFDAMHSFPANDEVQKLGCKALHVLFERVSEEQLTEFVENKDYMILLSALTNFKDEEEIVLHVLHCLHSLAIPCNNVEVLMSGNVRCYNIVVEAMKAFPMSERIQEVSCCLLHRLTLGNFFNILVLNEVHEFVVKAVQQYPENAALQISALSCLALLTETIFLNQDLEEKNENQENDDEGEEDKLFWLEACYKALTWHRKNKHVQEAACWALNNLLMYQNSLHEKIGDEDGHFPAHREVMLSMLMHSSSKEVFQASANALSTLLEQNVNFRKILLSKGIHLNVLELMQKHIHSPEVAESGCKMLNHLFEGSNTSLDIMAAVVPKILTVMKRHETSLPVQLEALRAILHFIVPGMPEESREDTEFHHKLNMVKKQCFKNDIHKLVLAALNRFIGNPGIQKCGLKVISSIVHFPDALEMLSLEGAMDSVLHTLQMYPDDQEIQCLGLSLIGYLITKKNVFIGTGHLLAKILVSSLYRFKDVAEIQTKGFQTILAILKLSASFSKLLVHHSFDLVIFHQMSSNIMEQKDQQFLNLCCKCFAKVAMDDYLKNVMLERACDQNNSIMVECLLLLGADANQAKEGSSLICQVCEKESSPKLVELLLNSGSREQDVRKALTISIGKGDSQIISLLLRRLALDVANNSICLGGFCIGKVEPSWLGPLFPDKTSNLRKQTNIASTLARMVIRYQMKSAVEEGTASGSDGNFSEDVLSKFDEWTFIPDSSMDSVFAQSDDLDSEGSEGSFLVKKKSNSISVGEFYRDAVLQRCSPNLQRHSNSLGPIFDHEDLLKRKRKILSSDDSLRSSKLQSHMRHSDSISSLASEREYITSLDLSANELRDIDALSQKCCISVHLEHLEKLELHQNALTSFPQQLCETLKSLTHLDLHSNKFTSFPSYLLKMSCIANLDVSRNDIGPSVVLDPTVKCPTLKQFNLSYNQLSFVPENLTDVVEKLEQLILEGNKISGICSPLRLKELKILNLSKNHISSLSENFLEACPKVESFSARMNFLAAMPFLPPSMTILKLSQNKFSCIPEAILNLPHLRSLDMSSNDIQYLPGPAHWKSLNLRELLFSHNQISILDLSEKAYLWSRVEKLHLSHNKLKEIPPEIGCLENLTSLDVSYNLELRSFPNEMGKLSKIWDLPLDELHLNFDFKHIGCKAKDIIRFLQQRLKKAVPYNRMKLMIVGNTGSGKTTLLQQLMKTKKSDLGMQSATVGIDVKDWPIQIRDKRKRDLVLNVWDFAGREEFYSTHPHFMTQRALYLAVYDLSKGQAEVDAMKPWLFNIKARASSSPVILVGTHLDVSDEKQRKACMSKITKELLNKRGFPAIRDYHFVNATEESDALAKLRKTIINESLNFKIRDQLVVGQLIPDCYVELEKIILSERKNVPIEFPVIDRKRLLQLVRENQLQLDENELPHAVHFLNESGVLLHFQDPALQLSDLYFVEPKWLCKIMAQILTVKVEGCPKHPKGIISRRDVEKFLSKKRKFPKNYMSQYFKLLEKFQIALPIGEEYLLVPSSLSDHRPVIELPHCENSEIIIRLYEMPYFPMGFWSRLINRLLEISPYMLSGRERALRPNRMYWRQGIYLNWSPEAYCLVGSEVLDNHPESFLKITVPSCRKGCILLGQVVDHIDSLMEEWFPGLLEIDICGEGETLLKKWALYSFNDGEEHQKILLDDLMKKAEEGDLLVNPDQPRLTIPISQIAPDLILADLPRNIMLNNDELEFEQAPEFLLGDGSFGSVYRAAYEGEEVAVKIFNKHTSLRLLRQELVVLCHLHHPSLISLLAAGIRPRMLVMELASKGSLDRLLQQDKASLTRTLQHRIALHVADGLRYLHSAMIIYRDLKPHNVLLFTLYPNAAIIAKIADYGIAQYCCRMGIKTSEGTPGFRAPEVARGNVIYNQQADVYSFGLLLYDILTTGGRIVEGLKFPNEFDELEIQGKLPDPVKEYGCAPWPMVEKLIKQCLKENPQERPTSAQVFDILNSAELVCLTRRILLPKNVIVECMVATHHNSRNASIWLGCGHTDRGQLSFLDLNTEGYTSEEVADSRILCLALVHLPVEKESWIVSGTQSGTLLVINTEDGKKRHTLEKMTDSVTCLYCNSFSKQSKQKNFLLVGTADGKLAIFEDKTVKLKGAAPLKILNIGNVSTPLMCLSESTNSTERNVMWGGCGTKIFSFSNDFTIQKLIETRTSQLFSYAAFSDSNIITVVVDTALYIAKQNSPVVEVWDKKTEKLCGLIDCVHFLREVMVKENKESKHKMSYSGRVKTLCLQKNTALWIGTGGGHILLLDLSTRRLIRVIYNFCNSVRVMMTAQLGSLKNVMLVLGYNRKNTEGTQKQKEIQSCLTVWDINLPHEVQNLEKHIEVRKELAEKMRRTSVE
# Sequence of PIK3CA(E545A) (P42336 whole entry E545A): as the sequence (P42336 whole entry C420R) above, with R420C, E545A counted along it
compound,measurement,setting,value
Cc1ccc(NC(=O)c2cccc(C(F)(F)F)c2)cc1Nc1cc(-c2cccnc2)nc2[nH]ccc12 [HZX-02-059],remaining binding at 1 µM,PRKCD,96%
same,remaining binding at 1 µM,SGK2,99%
same,remaining binding at 1 µM,MET(M1250T),100%
same,remaining binding at 1 µM,FLT3(R834Q),100%
same,remaining binding at 1 µM,ABL2,26%
same,remaining binding at 1 µM,CDC2L5,100%
same,remaining binding at 1 µM,ERN1,66%
same,remaining binding at 1 µM,LRRK2,100%
same,remaining binding at 1 µM,SGK,100%
same,remaining binding at 1 µM,HIPK4,86%
same,remaining binding at 1 µM,PIK3CA(E545A),88%
same,remaining binding at 1 µM,SLK,100%
same,remaining binding at 1 µM,FLT3-autoinhibited,98%
same,remaining binding at 1 µM,WNK2,100%
same,remaining binding at 1 µM,FRK,4.7%
same,remaining binding at 1 µM,PIK3CB,74%
same,remaining binding at 1 µM,MYLK,100%
same,remaining binding at 1 µM,AURKB,100%
same,remaining binding at 1 µM,CDK5,100%
same,remaining binding at 1 µM,"FLT3(ITD,D835V)",100%
same,remaining binding at 1 µM,PHKG1,97%
same,remaining binding at 1 µM,[1],98%
same,remaining binding at 1 µM,VEGFR2,100%
same,remaining binding at 1 µM,PIK3CA(C420R),100%
